From patent US12077503B2, “Substituted cyclic amides and their use as herbicides” (FMC CORPORATION, priority 2015, dated 2024)

Columns and labels:
Format in all cases: in vivo
[1] = tested on: crabgrass, large (Digitaria sanguinalis); experiment: Test A postemergence
Summary of the method: (§1)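 Preemergence directed soil spray on seeded pots, or postemergence application to plants 2–10 cm, one- to two-leaf. Solvent mixture non-phytotoxic, with surfactant. Scored ~10 d later, visually, 0–100 vs untreated.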

[2] = tested on: velvetleaf (Abutilon theophrasti); experiment: Test A postemergence
Summary of the method: as §1

[3] = tested on: barnyardgrass (Echinochloa crus-galli); experiment: Test A postemergence
Summary of the method: as §1

[4] = tested on: wheat (Triticum aestivum); experiment: Test A postemergence
Summary of the method: as §1

[5] = tested on: morningglory (Ipomoea spp.); experiment: Test A postemergence
Summary of the method: as §1

[6] = tested on: giant foxtail (Setaria faberii); experiment: Test A postemergence
Summary of the method: as §1

[7] = tested on: pigweed (Amaranthus retroflexus); experiment: Test A postemergence
Summary of the method: as §1

corn (Zea mays) [8] = experiment: Test A postemergence
Summary of the method: as §1

[9] = tested on: crabgrass, large (Digitaria sanguinalis); experiment: Test A preemergence; conditions: for Crabgrass, Large plant response rating (0 to 100 scale): Preemergence, 0 is no effect, 100 is complete control; for Plant response rating, Crabgrass, Large: preemergence
Summary of the method: as §1

[10] = tested on: velvetleaf (Abutilon theophrasti); experiment: Test A preemergence; conditions: for Velvetleaf plant response rating (0 to 100 scale): Preemergence, 0 is no effect, 100 is complete control; for Plant response rating, Velvetleaf: preemergence
Summary of the method: as §1

[11] = tested on: barnyardgrass (Echinochloa crus-galli); experiment: Test A preemergence; conditions: for Barnyardgrass plant response rating (0 to 100 scale): Preemergence, 0 is no effect, 100 is complete control; for Plant response rating, Barnyardgrass: preemergence
Summary of the method: as §1

[12] = tested on: wheat (Triticum aestivum); experiment: Test A preemergence; conditions: for Wheat plant response rating (0 to 100 scale): Preemergence, 0 is no effect, 100 is complete control; for Plant response rating, Wheat: preemergence
Summary of the method: as §1

[13] = tested on: morningglory (Ipomoea spp.); experiment: Test A preemergence; conditions: for Morningglory plant response rating (0 to 100 scale): Preemergence, 0 is no effect, 100 is complete control; for Plant response rating, Morningglory: preemergence
Summary of the method: as §1

[14] = tested on: giant foxtail (Setaria faberii); experiment: Test A preemergence; conditions: for Foxtail, Giant plant response rating (0 to 100 scale): Preemergence, 0 is no effect, 100 is complete control; for Plant response rating, Foxtail, Giant: preemergence
Summary of the method: as §1

[15] = tested on: pigweed (Amaranthus retroflexus); experiment: Test A preemergence; conditions: for Pigweed plant response rating (0 to 100 scale): Preemergence, 0 is no effect, 100 is complete control; for Plant response rating, Pigweed: preemergence
corn (Zea mays) [16] = experiment: Test A preemergence; conditions: for Corn plant response rating (0 to 100 scale): Preemergence, 0 is no effect, 100 is complete control; for Plant response rating, Corn: preemergence
Summary of the method: as §1

rice (Oryra sativa) = experiment: Test B flooded paddy test; conditions: Flood, 250 g ai/ha; 0 to 100 scale where 0 is no effect and 100 is complete control; 13 to 15 d
Summary of the method: (§2)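 Flooding to 3 cm over soil accompanied treatment, which consisted of adding compound to the standing water around 2-leaf plants; depth was then maintained. Visual assessment versus controls followed at 13 to 15 d (scale 0–100, 0 meaning no effect).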

[17] = tested on: barnyardgrass (Echinochloa crus-galli); experiment: Test B flooded paddy test; conditions: Flood, 250 g ai/ha; 0 to 100 scale where 0 is no effect and 100 is complete control; 13 to 15 d
Summary of the method: as §2

[18] = tested on: sedge, umbrella (small-flower umbrella sedge, Cyperus difformis); experiment: Test B flooded paddy test; conditions: Flood, 250 g ai/ha; for Sedge, Umbrella plant response rating: scale of 0 to 100 where 0 is no effect and 100 is complete control
Summary of the method: as §2

[19] = tested on: ducksalad (Heteranthera limosa); experiment: Test B flooded paddy test; conditions: Flood, 250 g ai/ha; 0 to 100 scale where 0 is no effect and 100 is complete control; 13 to 15 d
Summary of the method: as §2

[20] = 1000 g ai/ha, postemergence, 0 to 100 scale, 0 no effect, 100 complete control
[21] = 125 g ai/ha, postemergence, visual injury after approximately 10 d, 0 to 100 scale (0 no effect, 100 complete control)
[22] = 500 g ai/ha, postemergence, visual injury, 0 to 100 scale (0 no effect, 100 complete control), approx. 10 d
[23] = 125 g ai/ha, visual rating after approx. 10 d, 0 to 100 scale where 0 is no effect and 100 is complete control
[24] = 500 g ai/ha, 0 to 100 scale, 0 = no effect, 100 = complete control
[25] = 500 g ai/ha, postemergence, 0 to 100 scale, 0 no effect, 100 complete control
[26] = Postemergence, 125 g ai/ha, visual injury, 0 to 100 scale (0 no effect, 100 complete control), approx. 10 d
[27] = 125 g ai/ha, 0 to 100 scale (0 no effect, 100 complete control)

Cc1cccc(NC(=O)C2C(=O)NCC2c2ccc(F)c(F)c2)c1N (racemic) [Compound 355]
Plant response rating, Crabgrass, Large [1, 20]: 0
Plant response rating, Velvetleaf [2, 20]: 0
Plant response rating, Barnyardgrass [3, 20]: 0
Plant response rating, Wheat [4, 20]: 0
Plant response rating, Morningglory [5, 20]: 0
Plant response rating, Foxtail, Giant [6, 20]: 0
Plant response rating, Pigweed [7, 20]: 0
Plant response rating, Corn (corn (Zea mays) [8]; [20]): 0
Crabgrass, Large plant response rating (0 to 100 scale) ([9]; 1000 g ai/ha): 0
Velvetleaf plant response rating (0 to 100 scale) ([10]; 1000 g ai/ha): 0
Barnyardgrass plant response rating (0 to 100 scale) ([11]; 1000 g ai/ha): 0
Wheat plant response rating (0 to 100 scale) ([12]; 1000 g ai/ha): 0
Morningglory plant response rating (0 to 100 scale) ([13]; 1000 g ai/ha): 0
Foxtail, Giant plant response rating (0 to 100 scale) ([14]; 1000 g ai/ha): 0
Pigweed plant response rating (0 to 100 scale) ([15]; 1000 g ai/ha): 0
Corn plant response rating (0 to 100 scale) (corn (Zea mays) [16]; 1000 g ai/ha): 0

Nc1c(NC(=O)C2C(=O)NCC2c2ccc(F)c(F)c2)cccc1[N+](=O)[O-] (racemic) [Compound 357]
Plant response rating, Crabgrass, Large [1, 20]: 0
Plant response rating, Velvetleaf [2, 20]: 0
Plant response rating, Barnyardgrass [3, 20]: 0
Plant response rating, Wheat [4, 20]: 0
Plant response rating, Morningglory [5, 20]: 0
Plant response rating, Foxtail, Giant [6, 20]: 0
Plant response rating, Pigweed [7, 20]: 0
Plant response rating, Corn (corn (Zea mays) [8]; [20]): 0
Crabgrass, Large plant response rating (0 to 100 scale) ([9]; 1000 g ai/ha): 0
Velvetleaf plant response rating (0 to 100 scale) ([10]; 1000 g ai/ha): 0
Barnyardgrass plant response rating (0 to 100 scale) ([11]; 1000 g ai/ha): 0
Wheat plant response rating (0 to 100 scale) ([12]; 1000 g ai/ha): 0
Morningglory plant response rating (0 to 100 scale) ([13]; 1000 g ai/ha): 0
Foxtail, Giant plant response rating (0 to 100 scale) ([14]; 1000 g ai/ha): 0
Pigweed plant response rating (0 to 100 scale) ([15]; 1000 g ai/ha): 0
Corn plant response rating (0 to 100 scale) (corn (Zea mays) [16]; 1000 g ai/ha): 0

O=C1NCC(c2cccc(O)c2)C1C(=O)Nc1ccccc1F (racemic) [Compound 714]
Plant response rating, Crabgrass, Large [1, 21]: 0
Plant response rating, Crabgrass, Large [1, 22]: 0
Plant response rating, Velvetleaf [2, 21]: 0
Plant response rating, Velvetleaf [2, 22]: 0
Plant response rating, Barnyardgrass [3, 21]: 0
Plant response rating, Barnyardgrass [3, 22]: 0
Plant response rating, Wheat [4, 21]: 0
Plant response rating, Wheat [4, 22]: 0
Plant response rating, Morningglory [5, 21]: 0
Plant response rating, Morningglory [5, 22]: 0
Plant response rating, Foxtail, Giant [6, 21]: 0
Plant response rating, Foxtail, Giant [6, 22]: 0
Plant response rating, Pigweed [7, 21]: 0
Plant response rating, Pigweed [7, 22]: 0
Plant response rating, Corn (corn (Zea mays) [8]; [21]): 0
Plant response rating, Corn (corn (Zea mays) [8]; [22]): 0
Plant response rating, Rice (rice (Oryra sativa)): 0
Plant response rating, Barnyardgrass [17]: 0
Sedge, Umbrella plant response rating [18]: 0
Plant response rating, Ducksalad [19]: 0
Plant response rating, Crabgrass, Large [9, 23]: 20
Plant response rating, Crabgrass, Large [9, 24]: 30
Plant response rating, Velvetleaf [10, 23]: 0
Plant response rating, Velvetleaf [10, 24]: 0
Plant response rating, Barnyardgrass [11, 23]: 0
Plant response rating, Barnyardgrass [11, 24]: 0
Plant response rating, Wheat [12, 23]: 0
Plant response rating, Wheat [12, 24]: 0
Plant response rating, Morningglory [13, 23]: 0
Plant response rating, Morningglory [13, 24]: 0
Plant response rating, Foxtail, Giant [14, 23]: 0
Plant response rating, Foxtail, Giant [14, 24]: 20
Plant response rating, Pigweed [15, 23]: 0
Plant response rating, Pigweed [15, 24]: 0
Plant response rating, Corn (corn (Zea mays) [16]; [23]): 0
Plant response rating, Corn (corn (Zea mays) [16]; [24]): 0

O=C1NCC(c2cccc(O)c2)C1C(=O)Nc1cccc(F)c1F (racemic) [Compound 715]
Plant response rating, Crabgrass, Large [1, 21]: 0
Plant response rating, Crabgrass, Large [1, 22]: 0
Plant response rating, Velvetleaf [2, 21]: 0
Plant response rating, Velvetleaf [2, 22]: 0
Plant response rating, Barnyardgrass [3, 21]: 0
Plant response rating, Barnyardgrass [3, 22]: 0
Plant response rating, Wheat [4, 21]: 0
Plant response rating, Wheat [4, 22]: 0
Plant response rating, Morningglory [5, 21]: 0
Plant response rating, Morningglory [5, 22]: 0
Plant response rating, Foxtail, Giant [6, 21]: 0
Plant response rating, Foxtail, Giant [6, 22]: 0
Plant response rating, Pigweed [7, 21]: 0
Plant response rating, Pigweed [7, 22]: 0
Plant response rating, Corn (corn (Zea mays) [8]; [21]): 0
Plant response rating, Corn (corn (Zea mays) [8]; [22]): 0
Plant response rating, Rice (rice (Oryra sativa)): 0
Plant response rating, Barnyardgrass [17]: 0
Sedge, Umbrella plant response rating [18]: 0
Plant response rating, Ducksalad [19]: 0
Plant response rating, Crabgrass, Large [9, 23]: 0
Plant response rating, Crabgrass, Large [9, 24]: 0
Plant response rating, Velvetleaf [10, 23]: 0
Plant response rating, Velvetleaf [10, 24]: 0
Plant response rating, Barnyardgrass [11, 23]: 0
Plant response rating, Barnyardgrass [11, 24]: 0
Plant response rating, Wheat [12, 23]: 0
Plant response rating, Wheat [12, 24]: 0
Plant response rating, Morningglory [13, 23]: 0
Plant response rating, Morningglory [13, 24]: 0
Plant response rating, Foxtail, Giant [14, 23]: 0
Plant response rating, Foxtail, Giant [14, 24]: 0
Plant response rating, Pigweed [15, 23]: 0
Plant response rating, Pigweed [15, 24]: 0
Plant response rating, Corn (corn (Zea mays) [16]; [23]): 0
Plant response rating, Corn (corn (Zea mays) [16]; [24]): 0

CN(C)c1cccc(C2CNC(=O)C2C(=O)Nc2ccccc2F)c1 (centres unmarked) [Compound 360]
Plant response rating, Crabgrass, Large [1, 25]: 0
Plant response rating, Crabgrass, Large [1, 26]: 0
Plant response rating, Velvetleaf [2, 25]: 0
Plant response rating, Velvetleaf [2, 26]: 0
Plant response rating, Barnyardgrass [3, 25]: 0
Plant response rating, Barnyardgrass [3, 26]: 0
Plant response rating, Wheat [4, 25]: 0
Plant response rating, Wheat [4, 26]: 0
Plant response rating, Morningglory [5, 25]: 0
Plant response rating, Morningglory [5, 26]: 0
Plant response rating, Foxtail, Giant [6, 25]: 0
Plant response rating, Foxtail, Giant [6, 26]: 0
Plant response rating, Pigweed [7, 25]: 0
Plant response rating, Pigweed [7, 26]: 0
Plant response rating, Corn (corn (Zea mays) [8]; [25]): 0
Plant response rating, Corn (corn (Zea mays) [8]; [26]): 0
Plant response rating, Rice (rice (Oryra sativa)): 0
Plant response rating, Barnyardgrass [17]: 0
Plant response rating, Sedge, Umbrella ([18]; 0 to 100 scale where 0 is no effect and 100 is complete control, 13 to 15 d): 0
Plant response rating, Ducksalad [19]: 0
Plant response rating, Crabgrass, Large [9, 27]: 0
Crabgrass, Large plant response rating (0 to 100 scale) ([9]; 500 g ai/ha): 0
Plant response rating, Velvetleaf [10, 27]: 0
Velvetleaf plant response rating (0 to 100 scale) ([10]; 500 g ai/ha): 0
Plant response rating, Barnyardgrass [11, 27]: 0
Barnyardgrass plant response rating (0 to 100 scale) ([11]; 500 g ai/ha): 0
Plant response rating, Wheat [12, 27]: 0
Wheat plant response rating (0 to 100 scale) ([12]; 500 g ai/ha): 0
Plant response rating, Morningglory [13, 27]: 0
Morningglory plant response rating (0 to 100 scale) ([13]; 500 g ai/ha): 0
Plant response rating, Foxtail, Giant [14, 27]: 0
Foxtail, Giant plant response rating (0 to 100 scale) ([14]; 500 g ai/ha): 0
Plant response rating, Pigweed [15, 27]: 0
Pigweed plant response rating (0 to 100 scale) ([15]; 500 g ai/ha): 0
Plant response rating, Corn (corn (Zea mays) [16]; [27]): 0
Corn plant response rating (0 to 100 scale) (corn (Zea mays) [16]; 500 g ai/ha): 0
